In patent US10183011B2, “Anti-depression compounds” (Board of Regents of the University of Texas System, priority 2009, dated 2019):

What was measured:
R6/2 transgenic mice = assay: R6/2 model of Huntington's disease; assay type: in vivo, mouse
Method: FIG. 26A and FIG. 26B. Example 45 Compound (P7C3) Provides Therapeutic Benefit in Animal Model of Huntington's Disease. 40 female R6/2 mice were included in each of VEH (vehicle) and P7C3 (10 mg/kg P7C3 i.p. twice daily) groups, and treatment was begun at 6 weeks of age. […] All measurements were conducted blind to genotype and treatment group.
In one hypothesis, P7C3 (and its derivates) may enhance the formation of neurons in the mature hippocampus by preventing death rather than promoting proliferation of these cells. As such, P7C3 is “proneurogenic” by virtue of its neuroprotective activity. It is also possible that P7C3 (and its derivates) prevents cell death and promotes cell proliferation. It was evaluated whether P7C3 might provide therapeutic benefit in R6/2 mice. […] General condition score was determined by a 3 point scoring system that was conducted blind to genotype and treatment group (score of 0=fur looks groomed, normal posture (no hunch), clear eyes, alert; score of 1=fur beginning to stick up, slight hunch; score of 2=piloerection (fur sticking up), unkempt fur, hunch in back or neck area, crusty eyes). Death was monitored twice daily, and defined as either when animals were found dead, or when they were unable to right themselves after being placed on their backs with movement subsequently initiated by gentle prodding for 30 seconds. […]

[1] = system: hypothalamic neural precursor cells; assay: Hypothalamic neurogenesis (BrdU); assay type: in vivo, mouse (C57BL/6); details: 10 mg/kg twice daily i.p.
Method: FIG. 27. Example 45 Compound (P7C3) Augments Hypothalamic Neurogenesis. Administration of P7C3 for a one month period of time augments proliferation of hypothalamic neural precursor cells (shown in red) in the arcuate nucleus (ARC), dorsomedial hypothalamus (DMH) and ventralmedial hypothalamus (VMH). Micrographs shown are representative of staining from every third section throughout the hypothalamus in 4-6 mice for each treatment group.
It was evaluated whether P7C3 might augment hypothalamic neurogenesis by administering either vehicle or P7C3 (10 mg/kg twice daily, i.p.) to nine week old male C57BL/6 mice, starting two days before implantation of 7 day Alzet osmotic minipumps (model 1007d) loaded with BrdU (1 mg/kg). Pumps were connected to a cannula that delivered BrdU at a constant rate into the left lateral ventricle for the seven day period, during which time animals continued to receive either vehicle or P7C3. Pumps were surgically removed at the conclusion of their 7 day operating period, and mice were allowed to survive for 4 more weeks, during which time they continued to receive either vehicle or P7C3. At the end of the 4 week period, mice were deeply anesthetized with intraperitoneal (i.p.) injection of mouse anesthetic cocktail and transcardially perfused with 4% paraformaldehyde (PFA) in phosphate buffered saline (pH 7.4). […]

[2] = system: G93A-SOD1 transgenic mice; assay: G93A-SOD1 model of ALS, treatment from 40 days of age; assay type: in vivo, mouse
Method: FIG. 24A, FIG. 24B, FIG. 24C and FIG. 24D. Example 45 Compound (P7C3) Provides Therapeutic Benefit in Animal Model of Amyotrophic Lateral Sclerosis (ALS). Female G93A SOD1 mice (n=30 in each group, with all mice sibling matched across treatment groups) were treated with either vehicle or P7C3 (10 mg/kg i.p. twice daily) starting at 40 days of age. […] This score is determined as follows: ‘0’=full extension of hind legs away from lateral midline when the test mouse is suspended by its tail, and can hold this for 2 seconds, suspended 2-3 times; ‘1’=collapse or partial collapse of leg extension towards lateral midline (weakness) or trembling of hind legs during tail suspension; ‘2’=toes curl under at least twice during walking of 12 inches, or any part of foot drags along cage bottom/table; ‘3’=rigid paralysis or minimal joint movement, foot not being used for forward motion; and ‘4’=mouse cannot right itself within 30 seconds from either side. With further disease progression, vehicle-treated mice show the expected decline in retention time on the accelerating rotarod, with retention time averaged across 4 trials (FIG. 24C, open bars). P7C3-treated mice, however, show a consistent trend towards improved performance on this task after onset of disease (FIG. 24C, filled bars), with statistically significant improvement on days 131, 138 and 145 (*, p<0.001, Student's t Test). All graphical data shown above is mean+/−SEM, with statistical analysis conducted using the Student's t Test). As another means of disease progression, walking gait was evaluated. […] Front paws are dipped in red ink, and back paws are dipped in black ink. […] All analysis was conducted blind to treatment group.
P7C3 was intraperitoneally administered to female G93A-SOD1 transgenic mice using a treatment paradigm of 10 mg/kg P7C3 i.p. twice a day, compared to vehicle, starting at 40 days of age. This treatment scheme was selected based on standard protocols for initial proof of concept screens in these mice. To control for transgene copy number, mice are sibling matched between treatment groups, as per standard protocol. After initiation of P7C3 or vehicle treatment, date of onset of illness is determined by peak weight, and initial progression of disease is defined as the day at which mice fall to 10% below their maximum weight. Mice are also assessed daily by a standard determination of neurological severity score, with a score of 2 or worse for two consecutive days serving as an additional marker of illness progression. This score is determined blind to treatment group with the scoring system described in the legend for the figure. […]
As an initial test of efficacy in this disease model, we intraperitoneally administered P7C3 to female G93A-SOD1 transgenic mice using a treatment paradigm of 20 mg/kg/day P7C3, with vehicle administered to siblings, starting at 40 days of age. […] To control for transgene copy number, mice were sibling matched between treatment groups, as per standard protocol, and quantitative PCR was performed to ensure that the copy number was maintained within the normal range. After initiation of P7C3 or vehicle treatment, date of onset of illness was determined by peak weight, and initial progression of disease was defined as the day at which mice fell to 10% below their maximum weight. Mice were also assessed daily by a standard measure of neurological severity score ranging from 0-4, with a higher number reflecting greater neurologic impairment. […]

[3] = 10 mg/kg i.p. twice a day from 40 days of age

Structure (SMILES): OC(CNc1ccccc1)Cn1c2ccc(Br)cc2c2cc(Br)ccc21 (centres unmarked) [Example P7C3]
- survival of R6/2 mice (R6/2 transgenic mice; 10 mg/kg i.p. twice daily from 6 weeks of age): delays animal death by about three weeks
- general condition score (R6/2 transgenic mice; at 14 weeks of age): improved general condition score and appearance
- hypothalamic neurogenesis (BrdU positive staining) [1]: markedly enhances hypothalamic neurogenesis
- accelerating rotarod performance [2, 3]: significantly improved performance in the accelerating rotarod task
- age at neurological severity score of 2 [2, 3]: significantly delays the age at which G93A-SOD1 mice attain a neurological severity score of 2
- disease progression: time point of drop to 10% below maximum weight [2, 3]: slows disease progression
- walking gait (ink footprint) [2, 3]: preservation of normal gait on day 118
- survival ([2]; 20 mg/kg/day from 40 days of age): did not translate into increased survival of the animals
